ChEMBL document CHEMBL4417631, “Oral peptide inhibitors of interleukin-23 receptor and their use to treat inflammatory bowel diseases” (2017)
*1 amine or outer side, *2 acyl side, *3 side chain or, on linkers, in order; H or OH if unused. Where a SMILES comes first, the peptide text is derived from it. Bridges are numbered along the chain shown (N, C = ends). [ ]: non-standard residue; d: D form. Abu(4-yl) = O=C([C@H](CC[*:3])N[*:1])[*:2]; AEF = NCCOc1ccc(C[C@H](N)C(=O)O)cc1; Tic = O=C(O)[C@@H]1Cc2ccccc2CN1; αMeK = C[C@](N)(CCCCN)C(=O)O; Dap = NC[C@H](N)C(=O)O

molecular target: T1, Interleukin-23 receptor (Homo sapiens, UniProt Q5VWK5); test: Inhibition of interleukin-23 binding to human interleukin-23 receptor incubated for 2 hrs by competitive binding ELISA
T1 sequence (Q5VWK5 whole entry): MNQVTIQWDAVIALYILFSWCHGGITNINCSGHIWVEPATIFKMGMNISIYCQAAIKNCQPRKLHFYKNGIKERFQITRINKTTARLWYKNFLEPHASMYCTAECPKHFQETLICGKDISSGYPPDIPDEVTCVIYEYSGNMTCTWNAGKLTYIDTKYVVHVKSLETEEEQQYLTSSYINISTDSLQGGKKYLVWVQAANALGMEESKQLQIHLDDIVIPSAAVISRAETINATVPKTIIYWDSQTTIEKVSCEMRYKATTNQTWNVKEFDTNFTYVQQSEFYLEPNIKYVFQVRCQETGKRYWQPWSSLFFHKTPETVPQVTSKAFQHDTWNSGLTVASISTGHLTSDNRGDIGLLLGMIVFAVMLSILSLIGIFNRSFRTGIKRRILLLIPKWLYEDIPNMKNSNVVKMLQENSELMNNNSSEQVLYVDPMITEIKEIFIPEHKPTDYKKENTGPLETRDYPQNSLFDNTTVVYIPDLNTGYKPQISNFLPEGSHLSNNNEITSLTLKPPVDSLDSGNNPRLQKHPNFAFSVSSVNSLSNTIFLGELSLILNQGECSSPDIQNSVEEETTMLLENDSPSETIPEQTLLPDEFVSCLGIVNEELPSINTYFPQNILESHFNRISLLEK

| IC50 | Compound |
| --- | --- |
| 6 µM | CC(=O)N[C@@H](CS)C(=O)N[C@@H](CCC(N)=O)C(=O)N[C@H](C(=O)N[C@@H](Cc1c[nH]c2ccccc12)C(=O)N[C@@H](CCC(N)=O)C(=O)N[C@@H](CS)C(=O)N[C@@H](Cc1ccc(O)cc1)C(=O)N[C@@](C)(Cc1c[nH]c2ccccc12)C(=O)N[C@@H](CCCNC(N)=O)C(=O)N[C@@H](CCC(C)C)C(=O)N[C@@H](CC(N)=O)C(=O)NCC(=O)NCCC(=O)N[C@H](CCCCN)C(N)=O)[C@@H](C)O |
| 0.5 to 1 µM | CC(C)[C@H](NC(=O)[C@H](Cc1cnc[nH]1)NC(=O)[C@H](Cc1c[nH]c2ccccc12)NC(=O)[C@H](Cc1ccc(O)cc1)NC(=O)[C@H](CS)NC(=O)[C@@H](NC(=O)[C@H](Cc1c[nH]c2ccccc12)NC(=O)[C@H](CC(=O)O)NC(=O)[C@H](CO)NC(=O)[C@@H](N)CS)C(C)C)C(=O)N[C@@H](Cc1ccc(O)cc1)C(=O)NCC(N)=O (H-CSDWVCYWHVYG-NH2) |
| > 30 µM | CC(=O)N[C@@H](CS)C(=O)N[C@@H](C)C(=O)N[C@@H](CC(=O)O)C(=O)N[C@@H](Cc1c[nH]c2ccccc12)C(=O)N[C@H](C(=O)N[C@@H](CS)C(=O)N[C@@H](Cc1ccc(O)cc1)C(=O)N[C@@H](Cc1c[nH]c2ccccc12)C(=O)N[C@@H](CCCN)C(=O)N[C@H](C(=O)N[C@@H](Cc1ccccc1)C(=O)NCC(=O)NCCC(=O)N[C@H](CCCCN)C(N)=O)C1CCCCC1)C(C)C |
| > 3 µM | CC(=O)NCCCC[C@H](NC(=O)[C@](C)(CCCCN)NC(=O)[C@@H]1Cc2ccccc2CN1C(=O)[C@H](Cc1ccc(OCCN)cc1)NC(=O)[C@@H]1CSCC[C@H](NC(C)=O)C(=O)N[C@@H](CN)C(=O)N[C@@H]([C@@H](C)O)C(=O)N[C@@H](Cc2c[nH]c3ccccc23)C(=O)N[C@@H](CCC(N)=O)C(=O)N1)C(=O)N[C@@H](CC(N)=O)C(=O)NCC(N)=O (Ac-[Abu(4-yl)][Dap]TWQC[AEF][Tic][αMeK]K(Ac)NG-NH2; thioether 1-6) |
| < 0.5 µM | CC(=O)N[C@@H](CS)C(=O)N[C@@H](C)C(=O)N[C@@H](CC(=O)O)C(=O)N[C@@H](Cc1c[nH]c2ccccc12)C(=O)N[C@H](C(=O)N[C@@H](CS)C(=O)N[C@@H](Cc1ccc(O)cc1)C(=O)N[C@@H](Cc1c[nH]c2ccccc12)C(=O)N[C@@H](Cc1cnc[nH]1)C(=O)N[C@H](C(=O)N[C@@H](Cc1ccccc1)C(=O)NCC(=O)NCCOCCC(=O)N[C@H](CCCNC(=N)N)C(=O)O)[C@@H](C)O)C(C)C |
| 6 µM | CC(=O)N[C@@H](CS)C(=O)N[C@@H](C)C(=O)N[C@@H](CC(=O)O)C(=O)N[C@@H](Cc1c[nH]c2ccccc12)C(=O)N[C@H](C(=O)N[C@@H](CS)C(=O)N[C@@H](Cc1ccc(O)cc1)C(=O)N[C@H](CC(=O)N[C@@H](CCCN)C(=O)N[C@@H](CN)C(=O)N[C@@H](Cc1ccccc1)C(=O)NCC(=O)NCCOCC(=O)N[C@H](CCCCN)C(N)=O)Cc1c[nH]c2ccccc12)C(C)C |
| > 1 µM | CC(=O)N[C@@H](CS)C(=O)N[C@@H](C)C(=O)N[C@@H](CC(=O)O)C(=O)N[C@@H](Cc1c[nH]c2ccccc12)C(=O)N[C@H](C(=O)N[C@@H](CS)C(=O)N[C@@H](Cc1ccc(O)cc1)C(=O)N[C@@H](Cc1cccc2ccccc12)C(=O)N[C@@H](Cc1cnc[nH]1)C(=O)NCCOCCC(N)=O)C(C)C |
| 1 to 10 µM | CC(=O)N[C@H](C(=O)N[C@@H](C)C(=O)N[C@@H](CC(=O)O)C(=O)N[C@@H](Cc1c[nH]c2ccccc12)C(=O)N[C@H](C(=O)N[C@@H](CS)C(=O)N[C@@H](Cc1ccc(O)cc1)C(=O)N[C@@H](Cc1c[nH]c2ccccc12)C(=O)N[C@@H](Cc1cnc[nH]1)C(=O)N[C@H](C(=O)N[C@@H](Cc1ccccc1)C(=O)NCC(N)=O)[C@@H](C)O)C(C)C)C(C)(C)S |
| 6 µM | CC(=O)N[C@@H](CS)C(=O)N[C@@H](C)C(=O)N[C@@H](CC(=O)O)C(=O)N[C@@H](Cc1c[nH]c2ccccc12)C(=O)N[C@H](C(=O)N[C@@H](CS)C(=O)N[C@@H](Cc1ccc(O)cc1)C(=O)N[C@@H](Cc1ccc(C(N)=O)cc1)C(=O)N[C@@H](CCCN)C(=O)N[C@@H](CN)C(=O)N[C@@H](Cc1ccccc1)C(=O)NCC(=O)NCCOCC(=O)N[C@H](CCCCN)C(N)=O)C(C)C |
